# Test results: patent US10738080B2, “Inhibitors of beta integrin-G protein alpha subunit binding interactions” (priority 2010, dated 2020)
# No end group written: not given here. *: point of attachment. Myristoyl = CCCCCCCCCCCCCC(=O)*
# Molecular target: T1, Gα13 binding to β3 (Homo sapiens, UniProt P05106+Q14344)
# T1 construct: Proteins from platelet lysates were immunoprecipitated with control IgG or antibody to Gα13; The integrin αIIbβ3 was co-immunoprecipitated by anti-Gα13 antibody, but not control IgG, from platelet lysates; endogenous in cells; host or cells: washed human platelets (lysates)
# T1 sequence (Q14344 1-377): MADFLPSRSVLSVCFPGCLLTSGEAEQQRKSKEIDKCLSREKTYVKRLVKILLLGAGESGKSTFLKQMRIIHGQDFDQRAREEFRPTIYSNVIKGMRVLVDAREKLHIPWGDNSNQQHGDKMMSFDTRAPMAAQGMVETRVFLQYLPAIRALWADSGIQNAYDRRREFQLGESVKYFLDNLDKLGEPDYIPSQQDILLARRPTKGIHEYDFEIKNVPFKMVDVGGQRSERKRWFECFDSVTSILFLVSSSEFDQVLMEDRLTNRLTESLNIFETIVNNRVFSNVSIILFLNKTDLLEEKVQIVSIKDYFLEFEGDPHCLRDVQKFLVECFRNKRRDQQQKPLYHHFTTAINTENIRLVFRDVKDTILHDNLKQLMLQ
# T1 sequence (P05106 27-788): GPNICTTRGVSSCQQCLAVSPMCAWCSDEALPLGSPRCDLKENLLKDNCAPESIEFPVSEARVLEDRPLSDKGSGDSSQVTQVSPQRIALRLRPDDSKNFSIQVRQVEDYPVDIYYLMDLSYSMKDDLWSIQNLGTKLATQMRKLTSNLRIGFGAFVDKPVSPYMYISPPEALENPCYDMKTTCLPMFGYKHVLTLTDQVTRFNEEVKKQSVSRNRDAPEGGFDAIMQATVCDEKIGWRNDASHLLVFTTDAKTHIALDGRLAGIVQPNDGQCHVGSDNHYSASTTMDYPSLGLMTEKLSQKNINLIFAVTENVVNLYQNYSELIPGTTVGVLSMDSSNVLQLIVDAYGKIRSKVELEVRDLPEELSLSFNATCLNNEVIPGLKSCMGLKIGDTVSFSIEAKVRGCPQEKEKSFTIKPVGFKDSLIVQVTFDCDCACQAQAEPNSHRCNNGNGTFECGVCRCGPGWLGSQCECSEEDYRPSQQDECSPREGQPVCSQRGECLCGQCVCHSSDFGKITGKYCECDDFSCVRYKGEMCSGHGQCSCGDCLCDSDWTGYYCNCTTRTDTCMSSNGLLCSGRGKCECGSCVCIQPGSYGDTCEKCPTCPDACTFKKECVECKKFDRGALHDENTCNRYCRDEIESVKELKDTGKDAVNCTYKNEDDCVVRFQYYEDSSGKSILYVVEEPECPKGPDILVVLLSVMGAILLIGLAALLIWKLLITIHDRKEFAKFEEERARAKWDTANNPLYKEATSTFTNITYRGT
# Assay: Co-immunoprecipitation of β3 with Gα13 from platelet lysates
# Conditions: for co-immunoprecipitation between Gα13 and β3: platelets/platelet lysates, 500 μM peptide
# Protocol: As previously described (S7), cell lysates were incubated with 2 μg/ml of D57 (antibody to integrin αIIbβ3), LJP3 (antibody against GPIb), or mouse IgG, and further incubated with protein G-conjugated Sepharose beads. Cell lysates were also incubated with rabbit anti-Gα13 IgG antibody (1.5 μg/ml) or an equal amount of rabbit IgG and further incubated with protein A-conjugated Sepharose beads. After 3-6 washes with lysis buffer, immunoprecipitates were analyzed by SDS-polyacrylamide gel electrophoresis and Western blots with antibodies against β3 (MAb15), GPIb (anti-IbαC (S8)) or Gα13. In some experiments, 1 μM GDP, 1 μM GTPγS or 30 μM AlF4^− were added to the reaction to assess the effect of Gα13 activation on integrin binding. In other experiments, 250 μM mSRI or scrambled control peptide was incubated with platelet lysates prior to immunoprecipitation. GST bead pull down analysis was previously described (S7). Purified Gα13 was incubated with glutathione beads-bound to GST, GST-β1CD or GST-β3 CD at 4° C. overnight. Bead-bound proteins were analyzed by immunoblotting. For GST-β3CD cDNA construction, integrin-β3 cytoplasmic domain (716-762) cDNA was generated by PCR and cloned into pGEX-4T2 vector using Bam HI and Xho I restriction sites. The forward primer is 5′-[…]-3′ (SEQ ID NO: 48); the reverse primer is 5′-[…]-3′ (SEQ ID NO: 49). For GST-I31CD cDNA construction, β1 cytoplasmic domain (752-798) cDNA was amplified by PCR and cloned into pGEX-4T1 vector using EcoRI and Xho I restriction sites. The primer sequences are: (1) forward: 5′-[…]-3′ (SEQ ID NO: 50); (2) reverse: […]-3′ (SEQ ID NO: 51). GST, GST-β1CD and GST-β3CD were purified from BL21 (DE3) E. coli using glutathione-conjugated beads.
# Cell lysates were incubated with rabbit anti-Gα13 IgG (1.5 μg/ml), anti-integrin β3 rabbit serum (5 μl/ml) or an equal amount of rabbit IgG or pre-immune serum at 4° C. overnight, and subsequently with protein A-conjugated Sepharose beads for 1 hour. For the integrin β3 clustering experiment, human platelets (3×10^8) were stimulated with 0.025 U/ml α-thrombin for 2 minutes at room temperature (to avoid platelet aggregation) with or without 2 mM RGDS, then incubated with 5 μl anti-integrin β3 8053 rabbit serum at room temperature for 1 hour, and 5 μg goat anti-rabbit secondary antibody for another 1 hour. Platelets were then solubilized in modified RIPA Buffer. For the un-clustering control and pre-immune serum control, cells were solubilized in modified RIPA Buffer first, than incubated with 5 μl 8053 serum or pre-immune serum. After 3-6 washes with lysis buffer, immunoprecipitates were analyzed by SDS-polyacrylamide gel electrophoresis and Western blots using antibodies against β3, talin, or Gα13. In some experiments, 500 μM control or inhibitor peptides, mP5, mP7 and mP13 were incubated with platelet lysates prior to immunoprecipitation, or 2 mM RGDS was added into washed human platelets before stimulation by 0.025 U/ml α-thrombin. GST bead pull down analysis was previously described^8. Purified Gα13 or MBP-talin head were incubated with glutathione beads-bound to GST or GST-β3CD at 4° C. overnight. Bead-bound proteins were analyzed by immunoblotting.
Substance,co-immunoprecipitation between Gα13 and β3,"Gα13 binding to β3 (co-immunoprecipitation of β3 with Gα13) (platelet lysates, 250 μM peptide)"
Myr-EEERA [mP5],inhibited,–
Myristoyl-KFEEERA [mP7],inhibited,–
Myristoyl-KFEEERARAKWDT [mP13],inhibited,–
Myristoyl-LLARRPTKGIHEY [mSRI],–,inhibited
